Laboratory results: ChEMBL document CHEMBL1129924, “Synthesis and biological activity of cyclic analogues of MPPG and MCPG as metabotropic glutamate receptor antagonists” (Bioorg Med Chem Lett, 1997)

Columns and labels:
Type in all cases: functional
[1] = target: T1, Metabotropic glutamate receptor 1 (Rattus norvegicus, UniProt P23385); experiment: Antagonistic activity against Metabotropic glutamate receptor 1 was determined at 1 mM; NE = No significant effect observed
[2] = target: Metabotropic glutamate receptor 2 (Rattus norvegicus, UniProt P31421); experiment: Antagonistic activity against Metabotropic glutamate receptor 2 was determined
Metabotropic glutamate receptor 2, sequence (P31421 whole entry): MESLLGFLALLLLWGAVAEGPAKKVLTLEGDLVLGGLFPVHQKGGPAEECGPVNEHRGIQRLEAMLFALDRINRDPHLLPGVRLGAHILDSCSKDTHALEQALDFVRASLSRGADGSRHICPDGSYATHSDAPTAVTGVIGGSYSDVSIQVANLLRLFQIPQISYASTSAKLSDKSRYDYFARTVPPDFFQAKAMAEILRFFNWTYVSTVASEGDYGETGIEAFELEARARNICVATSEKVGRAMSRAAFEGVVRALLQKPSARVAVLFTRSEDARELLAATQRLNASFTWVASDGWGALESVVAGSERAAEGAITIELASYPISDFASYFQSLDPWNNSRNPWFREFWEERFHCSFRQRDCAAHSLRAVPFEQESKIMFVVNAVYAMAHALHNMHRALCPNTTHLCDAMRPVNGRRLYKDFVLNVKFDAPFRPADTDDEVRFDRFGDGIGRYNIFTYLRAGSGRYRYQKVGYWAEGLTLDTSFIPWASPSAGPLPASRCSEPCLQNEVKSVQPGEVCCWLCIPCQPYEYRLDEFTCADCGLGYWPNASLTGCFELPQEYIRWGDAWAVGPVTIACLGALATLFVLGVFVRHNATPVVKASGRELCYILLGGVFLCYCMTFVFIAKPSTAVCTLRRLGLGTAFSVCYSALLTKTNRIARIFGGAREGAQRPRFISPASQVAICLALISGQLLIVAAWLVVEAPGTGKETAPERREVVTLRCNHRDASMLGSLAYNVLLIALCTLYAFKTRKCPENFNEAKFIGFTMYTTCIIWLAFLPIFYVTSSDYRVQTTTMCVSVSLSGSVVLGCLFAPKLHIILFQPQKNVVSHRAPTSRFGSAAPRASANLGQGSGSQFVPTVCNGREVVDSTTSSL

[3] = target: Metabotropic glutamate receptor 6 (Rattus norvegicus, UniProt P35349); experiment: Antagonistic activity against Metabotropic glutamate receptor 6 was determined at 1 mM; NE = No significant effect observed
Metabotropic glutamate receptor 6, sequence (P35349 whole entry): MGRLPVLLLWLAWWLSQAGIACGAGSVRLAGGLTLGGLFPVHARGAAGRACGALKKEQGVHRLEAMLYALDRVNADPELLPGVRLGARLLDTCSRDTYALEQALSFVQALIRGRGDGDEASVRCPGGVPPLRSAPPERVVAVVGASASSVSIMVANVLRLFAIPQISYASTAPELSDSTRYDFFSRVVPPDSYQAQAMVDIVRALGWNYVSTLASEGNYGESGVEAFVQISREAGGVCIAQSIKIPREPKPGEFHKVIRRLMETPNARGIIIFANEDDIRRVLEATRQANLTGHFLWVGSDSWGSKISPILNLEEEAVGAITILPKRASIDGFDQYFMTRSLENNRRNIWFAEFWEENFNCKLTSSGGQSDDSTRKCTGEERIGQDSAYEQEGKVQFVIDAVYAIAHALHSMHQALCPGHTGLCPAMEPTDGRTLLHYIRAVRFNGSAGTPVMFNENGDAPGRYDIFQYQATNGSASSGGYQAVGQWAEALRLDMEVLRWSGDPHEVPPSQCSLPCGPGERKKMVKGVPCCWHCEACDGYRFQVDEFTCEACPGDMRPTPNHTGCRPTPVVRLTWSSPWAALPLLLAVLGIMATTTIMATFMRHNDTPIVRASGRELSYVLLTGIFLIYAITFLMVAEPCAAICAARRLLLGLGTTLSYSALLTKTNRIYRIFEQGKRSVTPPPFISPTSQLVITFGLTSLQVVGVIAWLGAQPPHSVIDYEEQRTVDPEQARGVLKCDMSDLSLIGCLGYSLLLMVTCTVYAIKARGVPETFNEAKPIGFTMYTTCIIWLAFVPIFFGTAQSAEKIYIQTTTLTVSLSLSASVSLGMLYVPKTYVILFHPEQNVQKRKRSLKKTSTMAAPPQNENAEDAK

[4] = target: T2, Metabotropic glutamate receptor 5 (Rattus norvegicus, UniProt P31424); experiment: Antagonistic activity against Metabotropic glutamate receptor 5 was determined at 1 mM; NE = No significant effect observed
T2 sequence (P31424 whole entry): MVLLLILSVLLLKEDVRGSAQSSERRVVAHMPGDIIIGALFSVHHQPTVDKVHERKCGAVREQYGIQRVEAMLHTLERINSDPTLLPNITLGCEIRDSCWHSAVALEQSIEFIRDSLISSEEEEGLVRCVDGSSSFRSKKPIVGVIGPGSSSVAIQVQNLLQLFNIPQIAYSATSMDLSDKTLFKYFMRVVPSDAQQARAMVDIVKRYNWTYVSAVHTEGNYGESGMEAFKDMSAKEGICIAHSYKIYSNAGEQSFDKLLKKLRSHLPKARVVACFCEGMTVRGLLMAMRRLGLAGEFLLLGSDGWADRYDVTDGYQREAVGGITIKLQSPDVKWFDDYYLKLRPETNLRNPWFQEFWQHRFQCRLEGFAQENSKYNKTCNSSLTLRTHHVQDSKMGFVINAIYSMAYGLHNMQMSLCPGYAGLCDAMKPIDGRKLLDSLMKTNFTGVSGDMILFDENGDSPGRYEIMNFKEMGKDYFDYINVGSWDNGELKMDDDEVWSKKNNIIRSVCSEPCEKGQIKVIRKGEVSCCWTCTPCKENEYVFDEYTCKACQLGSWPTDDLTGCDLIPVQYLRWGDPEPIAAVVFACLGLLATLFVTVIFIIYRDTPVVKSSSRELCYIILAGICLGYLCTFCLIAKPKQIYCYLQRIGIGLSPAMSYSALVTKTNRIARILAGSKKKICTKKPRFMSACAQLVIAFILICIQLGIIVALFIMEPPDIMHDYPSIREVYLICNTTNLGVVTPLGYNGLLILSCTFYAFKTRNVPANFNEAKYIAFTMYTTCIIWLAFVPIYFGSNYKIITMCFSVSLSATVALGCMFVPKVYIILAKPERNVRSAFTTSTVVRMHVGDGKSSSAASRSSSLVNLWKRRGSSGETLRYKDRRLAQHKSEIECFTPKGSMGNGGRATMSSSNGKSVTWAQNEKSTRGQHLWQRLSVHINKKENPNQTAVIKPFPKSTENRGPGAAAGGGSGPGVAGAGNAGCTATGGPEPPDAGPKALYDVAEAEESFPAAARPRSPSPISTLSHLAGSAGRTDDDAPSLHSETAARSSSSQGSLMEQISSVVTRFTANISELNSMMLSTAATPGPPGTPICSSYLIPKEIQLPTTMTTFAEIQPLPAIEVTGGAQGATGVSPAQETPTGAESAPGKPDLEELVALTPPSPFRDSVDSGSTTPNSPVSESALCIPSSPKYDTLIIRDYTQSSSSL

[5] = target: T2, Metabotropic glutamate receptor 5; experiment: Antagonistic activity against Metabotropic glutamate receptor 5 was determined
[6] = target: T1, Metabotropic glutamate receptor 1; experiment: Antagonistic activity against Metabotropic glutamate receptor 1 was determined

T1 sequence (P23385 whole entry): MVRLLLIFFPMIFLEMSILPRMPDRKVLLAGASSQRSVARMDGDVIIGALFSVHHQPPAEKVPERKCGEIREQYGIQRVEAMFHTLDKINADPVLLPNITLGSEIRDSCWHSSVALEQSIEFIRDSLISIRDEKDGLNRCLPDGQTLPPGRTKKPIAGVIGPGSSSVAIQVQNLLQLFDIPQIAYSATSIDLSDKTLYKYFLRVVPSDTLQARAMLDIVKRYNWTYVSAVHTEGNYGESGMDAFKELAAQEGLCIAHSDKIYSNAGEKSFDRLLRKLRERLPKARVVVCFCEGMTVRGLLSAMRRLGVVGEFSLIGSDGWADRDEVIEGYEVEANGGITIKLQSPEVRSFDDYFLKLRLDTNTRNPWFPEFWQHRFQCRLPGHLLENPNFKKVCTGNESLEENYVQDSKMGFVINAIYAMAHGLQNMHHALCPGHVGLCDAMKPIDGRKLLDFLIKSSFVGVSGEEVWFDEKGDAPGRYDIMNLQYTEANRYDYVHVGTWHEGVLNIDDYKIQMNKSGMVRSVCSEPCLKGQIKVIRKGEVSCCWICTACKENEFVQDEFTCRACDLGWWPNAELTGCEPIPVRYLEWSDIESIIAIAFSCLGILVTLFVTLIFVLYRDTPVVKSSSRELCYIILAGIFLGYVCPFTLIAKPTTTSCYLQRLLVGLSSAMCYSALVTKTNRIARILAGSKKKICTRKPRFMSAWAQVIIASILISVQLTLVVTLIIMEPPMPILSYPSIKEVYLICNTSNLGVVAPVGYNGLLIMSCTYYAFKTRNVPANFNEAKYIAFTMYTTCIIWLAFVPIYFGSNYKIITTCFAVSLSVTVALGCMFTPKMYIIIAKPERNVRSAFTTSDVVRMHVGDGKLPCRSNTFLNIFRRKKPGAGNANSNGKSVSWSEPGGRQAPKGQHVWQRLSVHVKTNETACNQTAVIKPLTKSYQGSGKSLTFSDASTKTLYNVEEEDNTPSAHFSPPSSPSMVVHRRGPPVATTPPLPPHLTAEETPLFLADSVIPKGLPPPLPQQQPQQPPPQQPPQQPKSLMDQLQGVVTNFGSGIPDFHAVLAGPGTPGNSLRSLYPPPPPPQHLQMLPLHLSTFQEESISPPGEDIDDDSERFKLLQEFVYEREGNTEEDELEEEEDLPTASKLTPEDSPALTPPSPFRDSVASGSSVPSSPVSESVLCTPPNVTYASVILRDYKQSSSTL

IC50 [1] | IC50 [2] [µM] | IC50 [3] | IC50 [4] | IC50 [5] [µM] | IC50 [6] [µM] | SMILES
No effect | 30 | No effect | No effect | – | – | NC1(C(=O)O)CCc2cc(P(=O)(O)O)ccc21 (stereo not drawn)
– | 43 | No effect | – | 355 | 93 | CC1(C)CC(N)(C(=O)O)c2ccc(C(=O)O)cc2O1 (stereo not drawn)
